In patent US6908935B2, “Calcium receptor modulating agents” (Amgen Inc., priority 2002, dated 2005):

Molecular target: T1, human parathyroid cell Ca^2+ receptor (hPCaR) (Homo sapiens, UniProt P41180)
T1 construct: expressed in transfected cells
T1 sequence (P41180 20-1078): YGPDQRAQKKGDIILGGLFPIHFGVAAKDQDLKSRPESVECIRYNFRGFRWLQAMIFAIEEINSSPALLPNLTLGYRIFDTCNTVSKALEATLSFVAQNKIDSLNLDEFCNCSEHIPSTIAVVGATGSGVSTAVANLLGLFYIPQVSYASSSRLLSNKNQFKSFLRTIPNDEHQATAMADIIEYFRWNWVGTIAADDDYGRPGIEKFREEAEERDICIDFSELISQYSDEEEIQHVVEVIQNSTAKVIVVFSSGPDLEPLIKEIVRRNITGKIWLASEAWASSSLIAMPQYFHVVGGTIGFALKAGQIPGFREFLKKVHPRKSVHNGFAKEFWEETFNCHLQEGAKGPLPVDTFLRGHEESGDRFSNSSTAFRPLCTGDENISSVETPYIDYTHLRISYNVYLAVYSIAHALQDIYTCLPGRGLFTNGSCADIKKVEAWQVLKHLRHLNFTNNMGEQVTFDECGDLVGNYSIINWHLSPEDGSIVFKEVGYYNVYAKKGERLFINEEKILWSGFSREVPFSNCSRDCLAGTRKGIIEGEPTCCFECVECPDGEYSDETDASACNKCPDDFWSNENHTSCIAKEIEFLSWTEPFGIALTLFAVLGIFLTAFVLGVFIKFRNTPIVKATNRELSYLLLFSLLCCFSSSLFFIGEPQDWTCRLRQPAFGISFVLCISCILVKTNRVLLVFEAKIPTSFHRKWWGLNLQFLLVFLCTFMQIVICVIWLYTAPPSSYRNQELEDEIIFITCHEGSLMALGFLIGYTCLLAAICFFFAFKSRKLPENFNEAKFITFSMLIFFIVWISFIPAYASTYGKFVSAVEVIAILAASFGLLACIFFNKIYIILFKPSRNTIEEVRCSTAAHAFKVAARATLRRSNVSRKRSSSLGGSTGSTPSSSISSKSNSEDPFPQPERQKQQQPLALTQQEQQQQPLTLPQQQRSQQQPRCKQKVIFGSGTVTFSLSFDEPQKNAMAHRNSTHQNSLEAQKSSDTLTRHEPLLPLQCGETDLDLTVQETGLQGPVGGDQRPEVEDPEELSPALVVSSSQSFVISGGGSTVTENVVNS
Assay: [Ca2+]i measurement with fluo-3 in HEK 293 4.0-7 cells stably transfected with hPCaR
Format: cell-based
Conditions: fluo-3 fluorescence (485/530 nm), effect on [Ca^2+]i
In short: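 HEK 293 cells stably expressing human parathyroid Ca2+ receptor (clone 4.0-7), loaded with 2 μM fluo-3 AM for 30 min at 37 °C in parathyroid cell buffer (pH 7.45) with 1 mM CaCl2 and 0.5% BSA. After compound addition, intracellular Ca2+ followed by fluorescence at 485 nm excitation/530 nm emission.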

| EC50 | SMILES |
| --- | --- |
| ≤ 10 µM | Cc1ccc([C@@H](C)NCc2cccc(-c3ncnc4c3ncn4C)c2)cc1 [Example 241, (1R)-1-(4-methylphenyl)-N-((3-(9-methyl-9H-purin-6-yl)phenyl)methyl)ethanamine] |
| ≤ 10 µM | COc1cccc([C@@H](C)NCc2ccc(OC)c(-c3csc(C)n3)c2)c1 [(1R)-N-((4-(methyloxy)-3-(2-methyl-1,3-thiazol-4-yl)phenyl)methyl)-1-(3-(methyloxy)phenyl)ethanamine] |
| ≤ 10 µM | COc1cccc([C@@H](C)NCc2ccc(Cl)c(-c3ccc(OC(F)(F)F)cc3)c2)c1 [(1R)-N-((6-chloro-4′-((trifluoromethyl)oxy)-1,1′-biphenyl-3-yl)methyl)-1-(3-(methyloxy)phenyl)ethanamine] |
| ≤ 10 µM | COc1cccc([C@@H](C)NCc2ccc(OC(F)F)c(-c3cccnc3)c2)c1 [(1R)-N-((4-((difluoromethyl)oxy)-3-(3-pyridinyl)phenyl)methyl)-1-(3-(methyloxy)phenyl)ethanamine] |
| ≤ 10 µM | COc1ccc(CN[C@H](C)c2cccc(C#N)c2)cc1-c1ccc(C(F)(F)F)cc1 (stereo in doubt) [3-(1-(((6-(methyloxy)-4′-(trifluoromethyl)-1,1′-biphenyl-3-yl)methyl)amino)ethyl)benzonitrile] |
| ≤ 10 µM | COc1ccc(CN[C@H](C)c2ccccc2)cc1-c1cccc(C#N)c1 [2′-(methyloxy)-5′-((((1R)-1-phenylethyl)amino)methyl)-1,1′-biphenyl-3-carbonitrile] |
| ≤ 10 µM | COc1cccc([C@@H](C)NCc2ccc(OC)c(-c3nnc(C(F)(F)F)o3)c2)c1 [(1R)-1-(3-(methyloxy)phenyl)-N-((4-(methyloxy)-3-(5-(trifluoromethyl)-1,3,4oxadiazol-2-yl)phenyl)methyl)ethanamine] |
| ≤ 10 µM | C[C@@H](NCc1cccc(-c2ccccn2)c1)c1ccc2ccccc2c1 [(1R)-1-(2-naphthalenyl)-N-((3-(2-pyridinyl)phenyl)methyl)ethanamine] |
| ≤ 10 µM | CCNC(=O)Nc1ccc(CN[C@H](C)c2cccc3ccccc23)cc1-c1ccc(OC)cc1 [N-ethyl-N′-(4′-(methyloxy)-5-((((1R)-1-(1-naphthalenyl)ethyl)amino)methyl)-1,1′-biphenyl-2-yl)urea] |
| ≤ 10 µM | COc1cccc([C@@H](C)NCc2ccc(OC)c(-c3cncnc3)c2)c1 [(1R)-1-(3-(methyloxy)phenyl)-N-((4-(methyloxy)-3-(5-pyrimidinyl)phenyl)methyl)ethanamine] |
| ≤ 10 µM | COc1ccc(CN[C@H](C)c2cccc3ccccc23)cc1-c1ncccn1 [(1R)-N-((4-(methyloxy)-3-(2-pyrimidinyl)phenyl)methyl)-1-(1-naphthalenyl)ethanamine] |
| ≤ 10 µM | COc1ccc([C@@H](C)NCc2cccc(-c3ccc4c(c3)OCO4)c2)cc1 [(1R)-N-((3-(1,3-benzodioxol-5-yl)phenyl)methyl)-1-(4-(methyloxy)phenyl)ethanamine] |
| ≤ 10 µM | COc1cccc([C@@H](C)NCc2ccc(OC)c(-c3cccc(C#N)c3)c2)c1 [2′-(methyloxy)-5′-((((1R)-1-(3-(methyloxy)phenyl)ethyl)amino)methyl)-1,1′-biphenyl-3-carbonitrile] |
| ≤ 10 µM | COc1ccc(CN[C@H](C)c2cccc(F)c2)cc1-c1ccc(C(F)(F)F)cc1 [(1R)-1-(3-fluorophenyl)-N-((6-(methyloxy)-4′-(trifluoromethyl)-1,1′-biphenyl-3-yl)methyl)ethanamine] |
| ≤ 10 µM | COc1cccc(-c2cc(CN[C@H](C)c3cccc4ccccc34)ccc2OC)c1 [(1R)-N-((3′,6-bis(methyloxy)-1,1′-biphenyl-3-yl)methyl)-1-(1-naphthalenyl)ethanamine] |
| ≤ 10 µM | COCC(=O)N1CCC(c2cc(CN[C@H](C)c3cccc4ccccc34)ccc2OC)CC1 [(1R)-N-((4-(methyloxy)-3-(1-((methyloxy)acetyl)-4-piperidinyl)phenyl)methyl)-1-(1-naphthalenyl)ethanamine] |
| ≤ 10 µM | COc1cccc([C@@H](C)NCc2ccc(OC)c(-c3ccc4ccccc4c3)c2)c1 [(1R)-N-((4-(methyloxy)-3-(2-naphthalenyl)phenyl)methyl)-1-(3-(methyloxy)phenyl)ethanamine] |
| ≤ 10 µM | COc1ccc([C@@H](C)NCc2cccc(-c3cnccn3)c2)cc1 [(1R)-1-(4-(methyloxy)phenyl)-N-((3-(2-pyrazinyl)phenyl)methyl)ethanamine] |
| ≤ 10 µM | COc1ccc(CN[C@H](C)c2cccc3ccccc23)cc1-c1ccc2c(ccn2CC(N)=O)c1 [2-(5-(2-(methyloxy)-5-((((1R)-1-(1-naphthalenyl)ethyl)amino)methyl)phenyl)-1H-indol-1-yl)acetamide] |
| ≤ 10 µM | COc1ccc(CN[C@H](C)c2cccc3ccccc23)cc1C1CCN(C(C)=O)CC1 [(1R)-N-((3-(1-acetyl-4-piperidinyl)-4-(methyloxy)phenyl)methyl)-1-(1-naphthalenyl)ethanamine] |
| ≤ 10 µM | COc1ccc(-c2cccc(CN[C@H](C)c3ccc4ccccc4c3)c2)cc1 [(1R)-N-((4′-(methyloxy)-1,1′-biphenyl-3-yl)methyl)-1-(2-naphthalenyl)ethanamine] |
| ≤ 10 µM | COc1cccc([C@@H](C)NCc2ccc(OC)c(-c3ccc(C(N)=O)cc3)c2)c1 [2′-(methyloxy)-5′-((((1R)-1-(3-(methyloxy)phenyl)ethyl)amino)methyl)-1,1′-biphenyl-4-carboxamide] |
| ≤ 10 µM | COc1ccc(CN[C@H](C)c2cccc3ccccc23)cc1-c1ccc(C(N)=O)cc1 [2′-(methyloxy)-5′-((((1R)-1-(1-naphthalenyl)ethyl)amino)methyl)-1,1′-biphenyl-4-carboxamide] |
| ≤ 10 µM | COc1ccc([C@@H](C)NCc2cccc(-c3ccccc3C)c2)cc1 [(1R)-N-((2′-methyl-1,1′-biphenyl-3-yl)methyl)-1-(4-(methyloxy)phenyl)ethanamine] |
| ≤ 10 µM | COc1ccc(CN[C@H](C)c2cccc3ccccc23)cc1-c1ccc(=O)n(C)c1 [1-methyl-5-(2-(methyloxy)-5-((((1R)-1-(1-naphthalenyl)ethyl)amino)methyl)phenyl)-2-(1H)-pyridinone] |
| ≤ 10 µM | CCOC(=O)N1CCC(c2cc(CN[C@H](C)c3cccc4ccccc34)ccc2OC)CC1 [ethyl 4-(2-(methyloxy)-5-((((1R)-1-(1-naphthalenyl)ethyl)amino)methyl)phenyl)-1-piperidinecarboxylate] |
| ≤ 10 µM | COc1ccc(CNC(C)c2cc(F)cc(F)c2)cc1-c1ccc(C(F)(F)F)cc1 (stereo not drawn) [1-(3,5-difluorophenyl)-N-((6-(methyloxy)-4′-(trifluoromethyl)-1,1′-biphenyl-3-yl)methyl)ethanamine] |
| ≤ 10 µM | COc1ccnc(-c2cc(CN[C@H](C)c3ccccc3)ccc2OC)c1 [(1R)-N-((4-(methyloxy)-3-(4-(methyloxy)-2-pyridinyl)phenyl)methyl)-1-phenylethanamine] |
| ≤ 10 µM | COc1ccc(CNC(C)c2cccc(Br)c2)cc1-c1ccc(C(F)(F)F)cc1 (stereo not drawn) [1-(3-bromophenyl)-N-((6-(methyloxy)-4′-(trifluoromethyl)-1,1′-biphenyl-3-yl)methyl)ethanamine] |
| ≤ 10 µM | C[C@@H](NCc1cccc(-c2nccs2)c1)c1ccccc1 [Example 218, (1R)-1-phenyl-N-((3-(1,3-thiazol-2-yl)phenyl)methyl)ethanamine] |
